The values that follow come from patent US20210179683A1, “METHOD OF RESPONSE PREDICTION FOR BCL2 FAMILY PROTEIN TARGETING DRUG” (Proteina Co., Ltd., priority 2019, published 2021).

For one assay, the system named is leukocyte count. The assay is described as follows: Leukocyte count of treated blood cancer patients. The format is in vivo, human. The source says:
The method provided herein can lead to a method for tracing molecular states of a patient with time. In greater detail, the interaction analysis of bone marrow or blood specimens collected at various stages from a blood cancer patient can be used to provide information helpful in determining BCL2 family protein-dependence and whether to administer a corresponding targeted anticancer agent. […] Afterwards, a cord blood stem cell transplantation brought about complete remission in the patient. In addition, time series diagnosis was performed for patient 2 in the same manner as for patient 1 (FIG. 35). In patient 2, the signaling pathway of the BCL2 family protein could not be controlled by prescribing the FLT3 targeting inhibitor, either. […] From the results obtained above, it is understood that quizartinib prescription cannot bring about any clinical effect.

Assay [1] deals with T1, BCL2-BIM interaction (Homo sapiens, UniProt P10415). The assay is described as follows: BCL2-BIM PPI in bone marrow or whole blood specimens of blood cancer patients over the course of treatment. It is filed as in vivo. Further details: PPI counts between BCL2, MCL1, or BCL-XL, all endogenous to the samples from patient 1, and exogenous BIM; from tissue; host or cells: bone marrow and whole blood of blood cancer patients. Particulars: patient 1; bone marrow after quizartinib, whole blood after venetoclax and LDAC. From the text:
The method provided herein can lead to a method for tracing molecular states of a patient with time. In greater detail, the interaction analysis of bone marrow or blood specimens collected at various stages from a blood cancer patient can be used to provide information helpful in determining BCL2 family protein-dependence and whether to administer a corresponding targeted anticancer agent. […] Afterwards, a cord blood stem cell transplantation brought about complete remission in the patient.
In addition, time series diagnosis was performed for patient 2 in the same manner as for patient 1 (FIG. 35). In patient 2, the signaling pathway of the BCL2 family protein could not be controlled by prescribing the FLT3 targeting inhibitor, either. […] From the results obtained above, it is understood that quizartinib prescription cannot bring about any clinical effect.

A further assay has as its system BAX (N-terminus exposed). The assay is described as follows: Detection of N-terminus exposed (active conformation) BAX in GDN lysates of drug-treated cells. To be noted: Staurosporine for one hour or venetoclax for 24 hours; lysis buffer containing GDN. It is filed as cell-based, human. From the text: (§1) In order to achieve this Example, a specimen may be prepared by artificially inducing apoptosis.

The next assay relates to BAX. The assay is described as follows: BAX level after forced N-terminus exposure with Triton X-100 in lysates of drug-treated cells. It is filed as cell-based, human. To be noted: Staurosporine for one hour or venetoclax for 24 hours; lysis buffer containing Triton X-100.
Source text: as §1

Assay [2] addresses T1, BCL2-BIM interaction. The assay is described as follows: BCL2-BIM PPI intensity with inhibitor added together with BIM-GFP to pulled-down BCL2. It is filed as binding. Particulars: various concentrations of inhibitor added with BIM-GFP; BCL2 from HL60. Here is the method: Excess lysate was washed off with a washing buffer (HEPES 50 mM NaCl 150 mM glycerol 1% GDN 0.03%). Then, protein-protein interactions were measured as follows:
This Example can be used to measure direct relationship between targeting inhibitors used and the BCL2 family proteins and related signaling proteins. To this end, BCL2 or MCL1 protein was used as a first protein while BIM-GFP protein served as a first protein-interacting protein.

The next assay deals with BCL2. The assay is described as follows: BCL2 expression level in drug-treated cells. To be noted: OCI-LY3 cells, 24 hours.
For the next assay, the target named is T2, BCL2-BAD interaction (Homo sapiens, UniProt P10415).
T2 construct: endogenous in cells; host or cells: HL60, OCI-LY3
The assay is described as follows: PPI between endogenous BCL2 of drug-treated cells and exogenous BAD-GFP (single-molecule pull-down, TIRF). The format is cell-based. To be noted: 24 hours. Here is the method:
(§2) Blood cancer cells (The Korean Cell Line Bank and ATCC; HL-60 (CVCL_0002), OCI-LY3 (CVCL_8800)), Ramos (CVCL_0597), U937, THP1, and SUDHL8) and the blood cancer cell pellets from buffy coats of patients were each suspended in a lysis buffer (HEPES 50 mM NaCl 150 mM Glycerol 10% (w/v) GDN (Digitonin) 1% (w/v) with 2% (w/v) phosphatase inhibitor cocktail ⅔ (P5726, P0044)) and vortexed three times at regular intervals of 10 min. After 30 min, the lysis buffer containing the pellet homogenate was centrifuged at 15,000 g for 10 min. The supernatant thus formed was used as an analysis lysate to be applied to a substrate in subsequent experiments. […]
The cell lysate, prepared in Example 1.2, containing the probe-labeled first protein-interacting protein was added to the substrate prepared in Example 1.3. […] Then, protein-protein interactions were measured as follows:
The substrate was fixedly mounted on a total internal reflection fluorescence and imaged to obtain data for protein-protein interaction (binding). […]
(§3) For example, the method proposed in this Example can quantitatively measure changes in PPI intensity and complex formation after and before treatment with BCL2-targeting inhibitors. […]

For another assay, the target named is T3, BCL-XL (Homo sapiens, UniProt Q07817).
T3 construct: endogenous in cells; host or cells: HL60, OCI-LY3
Briefly: PPI of endogenous BCL-XL of drug-treated cells with exogenous BAD. The format is cell-based. To be noted: HL60 or OCI-LY3 cells, 100 nM, 24 hours, vs DMSO. The method, then:
as §2
The cell lysate, prepared in Example 1.2, containing the probe-labeled first protein-interacting protein was added to the substrate prepared in Example 1.3. […] Then, protein-protein interactions were measured as follows: […]
as §3

For the next assay, the target named is T4, MCL1-NOXA interaction (Homo sapiens, UniProt Q07820).
T4 construct: endogenous in cells; host or cells: HL60, OCI-LY3
The assay is described as follows: PPI between endogenous MCL1 of drug-treated cells and exogenous GFP-NOXA. It is filed as cell-based. To be noted: HL60 or OCI-LY3 cells, 100 nM, 24 hours, vs DMSO. Here is the method:
Excess lysate was washed off with a washing buffer (HEPES 50 mM NaCl 150 mM glycerol 1% GDN 0.03%). Then, protein-protein interactions were measured as follows: […]

T1 sequence (P10415 whole entry): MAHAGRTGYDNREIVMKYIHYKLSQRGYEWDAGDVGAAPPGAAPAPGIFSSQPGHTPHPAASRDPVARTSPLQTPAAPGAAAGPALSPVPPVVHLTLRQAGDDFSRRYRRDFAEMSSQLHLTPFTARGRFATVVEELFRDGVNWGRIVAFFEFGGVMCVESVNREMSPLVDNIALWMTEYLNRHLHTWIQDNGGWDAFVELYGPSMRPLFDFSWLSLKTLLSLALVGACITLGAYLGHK
T2 sequence (P10415 whole entry): as above
T3 sequence (Q07817 whole entry): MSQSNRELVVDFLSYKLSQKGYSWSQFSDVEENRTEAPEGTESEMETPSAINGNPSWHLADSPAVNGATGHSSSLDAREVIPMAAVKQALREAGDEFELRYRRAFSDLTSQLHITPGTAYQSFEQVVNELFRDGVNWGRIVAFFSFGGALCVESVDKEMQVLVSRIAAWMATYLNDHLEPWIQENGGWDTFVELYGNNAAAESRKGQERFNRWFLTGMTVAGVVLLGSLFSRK
T4 sequence (Q07820 whole entry): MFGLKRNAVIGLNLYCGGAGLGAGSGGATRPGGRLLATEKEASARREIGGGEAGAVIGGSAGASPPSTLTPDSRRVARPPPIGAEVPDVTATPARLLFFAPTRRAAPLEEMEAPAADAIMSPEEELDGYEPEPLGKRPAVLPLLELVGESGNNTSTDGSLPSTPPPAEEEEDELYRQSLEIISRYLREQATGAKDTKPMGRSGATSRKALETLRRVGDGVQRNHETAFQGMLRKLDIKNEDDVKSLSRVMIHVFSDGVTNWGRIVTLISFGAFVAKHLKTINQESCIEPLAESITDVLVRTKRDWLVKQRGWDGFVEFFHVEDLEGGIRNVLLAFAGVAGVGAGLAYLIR

On to `CC(C)(C)c1cc(NC(=O)Nc2ccc(-c3cn4c(n3)sc3cc(OCCN5CCOCC5)ccc34)cc2)no1` [quizartinib], for which the leukocyte count entry in the assay with leukocyte count (patient 1) was “drastic rise”; with leukocyte count (patient 2), “about three folds increased”. Besides, the “BCL2-BIM PPI” value at BCL2-BIM interaction [1] is on record as “drastic increase”.

For `CN[C@@H]1C[C@H]2O[C@@](C)([C@@H]1OC)n1c3ccccc3c3c4c(c5c6ccccc6n2c5c31)C(=O)NC4` [Staurosporine], in the assay on BAX (N-terminus exposed), the “N-terminus exposed BAX signals” value is “increased signals”. Further, the “N-terminus-exposed BAX after artificial exposure with Triton X-100” value with BAX was “constant values”.

As for `Cc1c2c(nn1C)CSCc1cc(n(C)n1)CSc1cc(c3ccccc3c1)OCCCc1c(C(=O)O)n(C)c3c-2c(Cl)ccc13` [AZD5991], the “BCL2-BIM PPI intensity” value at BCL2-BIM interaction [2] is on record as “not affected”. The “expression level of BCL2” value in the assay on BCL2 is “does not incite a significant change”. On BCL2-BAD interaction (OCI-LY3 cells, vs non-treated group), the “BCL2-BAD interaction (PPI)” value is given as “no influences”.

`CO[C@H]1/C=C/C[C@H](C)[C@@H](C)S(=O)(=O)NC(=O)c2ccc3c(c2)N(C[C@@H]2CC[C@H]21)C[C@@]1(CCCc2cc(Cl)ccc21)CO3` [AMG176]: on BCL-XL, the “BCL-XL PPI intensity” value is “responsive to none”. Moreover, on MCL1-NOXA interaction, the “MCL1-NOXA PPI” value is “selectively increase”. In addition, the “BCL2-BAD PPI intensity” value at BCL2-BAD interaction (HL60 and OCI-LY3 cells, 100 nM, vs DMSO) was “did not change”.
